The text below walks through data of ChEMBL document CHEMBL1158711, “Bisindigotin, a TCDD antagonist from the Chinese medicinal herb Isatis indigotica” (J Nat Prod, 2005).

The assay in a line: Inhibition of TCDD-induced EROD activity in human HepG2 cells after 24 hrs. Type of assay: cell-based.

For `CC(=O)N1/C(=C2\N=c3ccccc3=C2c2c(C3=Nc4ccccc4C3=O)[nH]c3ccccc23)C(=O)c2ccccc21`, the IC50 came to 3000 nM.
In turn, `O=c1cc(-c2ccccc2)oc2c1ccc1ccccc12` [ALPHA-NAPHTHOFLAVONE] came in with an IC50 of 320 nM.
`O=C1C(c2[nH]c3ccccc3c2C2=c3ccccc3=N/C2=C2\Nc3ccccc3C2=O)=Nc2ccccc21` [BISINDIGOTIN]: it took 800 nM to reach half-maximal inhibition (IC50).
